Tests used:
[1] = target: streptokinase-induced fibrinolysis (fibrinogen, plasminogen, thrombin system); test: in vitro antifibrinolytic activity, 50% inhibition of streptokinase-induced fibrinolysis; format: biochemical; conditions: for Actual amount of compound for 50% inhibition of 6 units of streptokinase: fibrinogen, plasminogen, thrombin plus 6 units of streptokinase
Procedure: Antifibrinolytic activity quantitative assay was conducted by a technique utilizing the procedures described by Christensen, L. E. in J. clin. Invest., volume 28 (1949), page 163, and Wasserman, A. E., et al. in J. Lab. clin. Med., volume 4 (1953), page 812. […] The system consists of fibrinogen, plasminogen, and thrombin, to which is added 6 units of streptokinase which produces a lytic effect. The 50% inhibition studied corresponds to a lytic activity of 3 units of streptokinase. […] The time necessary for the formed plasmin to dissolve a standard fibrin coagulum is determined.
The following table furnishes the data on the in vitro antifibrinolytic activity of the several compounds considered in this specification, expressed as 50% inhibition of 6 units of streptokinase: […]

[2] = animal organism, i.e. the subject being treated; cited from earlier work
fibrinolysis = conditions: cited from earlier work

Structure (SMILES)	Actual amount of compound for 50% inhibition of 6 units of streptokinase ([1]; in vitro)	Relative activity ([1]; in vitro, 50% inhibition of 6 units of streptokinase, relative to EACA = 1)	excretion [2]	antifibrinolytic activity in clinical use (fibrinolysis)	antifibrinolytic activity ([1]; evaluation of the two separate AMCHA isomers)
NCC1CCC(C(=O)O)CC1 (single isomer, unassigned; isomer 4) [Active-AMCHA isomer, 4-aminomethyl-cyclohexane carboxylic acid]	0.2 γ				
NCCCCCC(=O)O [EACA, epsilon-aminocaproicacid]	4 γ	1	so rapidly excreted	acceptable degree of antifibrinolytic activity	
NCC1CCC(C(=O)O)CC1 (single isomer, unassigned; isomer 4) [Inactive-AMCHA isomer, 4-aminomethyl-cyclohexane carboxylic acid]	30 γ				practically devoid of any antifibrinolytic activity
NCC1CCC(C(=O)O)CC1 (single isomer, unassigned; isomer 4) [Isomeric AMCHA, comprising 10% active isomer, 4-aminomethyl-cyclohexane carboxylic acid]	2 γ				
